Legend:
[1] = test system: corn; assay: Test B pre/postemergence corn; type: in vivo, Zea mays
Procedure, shortened: (§1)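 Test chemicals in a non-phytotoxic solvent mixture with surfactant were sprayed preemergence onto planted seeds and postemergence onto plants 2 to 18 cm tall (1- to 4-leaf stage). After twelve to sixteen days in a greenhouse, injury was visually rated against untreated controls from 0 (no effect) to 10 (complete control).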

[2] = test system: velvetleaf; assay: Test B pre/postemergence velvetleaf; type: in vivo, Abutilon theophrasti
Procedure, shortened: as §1

[3] = test system: crabgrass; assay: Test B pre/postemergence crabgrass; type: in vivo, Digitaria sanguinalis
Procedure, shortened: as §1

[4] = test system: morningglory; assay: Test B pre/postemergence morningglory; type: in vivo, Ipomoea hederacea
Procedure, shortened: as §1

[5] = test system: rape; assay: Test B pre/postemergence rape; type: in vivo, Brassica napus
Procedure, shortened: as §1

[6] = test system: soybean; assay: Test B pre/postemergence soybean; type: in vivo, Glycine max
Procedure, shortened: as §1

[7] = test system: wild oat; assay: Test B pre/postemergence wild oat; type: in vivo, Avena fatua
Procedure, shortened: as §1

[8] = test system: surinam grass; assay: Test B pre/postemergence surinam grass; type: in vivo, Brachiaria decumbens
Procedure, shortened: as §1

[9] = test system: blackgrass; assay: Test B pre/postemergence blackgrass; type: in vivo, Alopecurus myosuroides
Procedure, shortened: as §1

[10] = test system: pigweed; assay: Test B pre/postemergence pigweed; type: in vivo, Amaranthus retroflexus
Procedure, shortened: as §1

[11] = test system: bedstraw; assay: Test B pre/postemergence bedstraw; type: in vivo, Galium aparine
Procedure, shortened: as §1

[12] = test system: giant foxtail; assay: Test B pre/postemergence giant foxtail; type: in vivo, Setaria faberii
Procedure, shortened: as §1

[13] = test system: purple nutsedge; assay: Test B pre/postemergence purple nutsedge; type: in vivo, Cyperus rotundus
Procedure, shortened: as §1

[14] = test system: wheat; assay: Test B pre/postemergence wheat; type: in vivo, Triticum aestivum
Procedure, shortened: as §1

[15] = test system: cocklebur; assay: Test B pre/postemergence cocklebur; type: in vivo, Xanthium strumarium
Procedure, shortened: as §1

[16] = Postemergence, Rate 62 g/ha, scale 0 to 10, 0 is no effect, 10 is complete control
[17] = Postemergence, Rate 125 g/ha, scale of 0 to 10 where 0 is no effect and 10 is complete control
[18] = Postemergence, Rate 250 g/ha, scale of 0 to 10, 0 is no effect, 10 is complete control
[19] = Postemergence, Rate 500 g/ha, scale of 0 to 10 where 0 is no effect and 10 is complete control
[20] = Preemergence, Rate 62 g/ha, scale 0 to 10 (0 no effect, 10 complete control)
[21] = Preemergence, Rate 125 g/ha, scale of 0 to 10 where 0 is no effect and 10 is complete control
[22] = Preemergence, Rate 250 g/ha, scale 0 to 10 (0 no effect, 10 complete control)
[23] = Preemergence, Rate 500 g/ha, scale of 0 to 10 where 0 is no effect and 10 is complete control

CC(C)N(C(=O)n1oc(=O)n(CNC(=O)c2ccccc2)c1=O)c1ccccc1 [Compound 620]
Plant response rating, Corn [1, 16]: 0
Plant response rating, Corn [1, 17]: 0
Corn plant response rating [1, 18]: 0
Plant response rating, Corn [1, 19]: 0
Corn plant response rating [1, 20]: 0
Corn plant response rating [1, 21]: 0
Plant response rating, Corn [1, 22]: 0
Plant response rating, Corn [1, 23]: 0
Plant response rating, Velvetleaf [2, 16]: 0
Plant response rating, Velvetleaf [2, 17]: 0
Velvetleaf plant response rating [2, 18]: 0
Velvetleaf plant response rating [2, 20]: 0
Velvetleaf plant response rating [2, 21]: 0
Plant response rating, Velvetleaf [2, 22]: 0
Plant response rating, Velvetleaf [2, 23]: 0
Plant response rating, Crabgrass [3, 16]: 1
Plant response rating, Crabgrass [3, 17]: 2
Plant response rating, Crabgrass [3, 19]: 3
Crabgrass plant response rating [3, 20]: 0
Crabgrass plant response rating [3, 21]: 0
Plant response rating, Crabgrass [3, 22]: 0
Plant response rating, Crabgrass [3, 23]: 6
Plant response rating, Morningglory [4, 16]: 2
Morningglory plant response rating [4, 18]: 2
Morningglory plant response rating [4, 20]: 0
Morningglory plant response rating [4, 21]: 0
Plant response rating, Morningglory [4, 22]: 0
Plant response rating, Morningglory [4, 23]: 0
Plant response rating, Rape [5, 16]: 0
Plant response rating, Rape [5, 17]: 0
Rape plant response rating [5, 18]: 0
Plant response rating, Rape [5, 19]: 0
Rape plant response rating [5, 20]: 0
Rape plant response rating [5, 21]: 0
Plant response rating, Rape [5, 22]: 0
Plant response rating, Rape [5, 23]: 0
Plant response rating, Soybean [6, 16]: 1
Plant response rating, Soybean [6, 17]: 1
Soybean plant response rating [6, 18]: 1
Soybean plant response rating [6, 20]: 0
Soybean plant response rating [6, 21]: 0
Plant response rating, Soybean [6, 22]: 0
Plant response rating, Soybean [6, 23]: 0
Plant response rating, Wild oats [7, 16]: 0
Plant response rating, Wild oats [7, 17]: 0
Wild oats plant response rating [7, 18]: 0
Wild oats plant response rating [7, 20]: 0
Wild oats plant response rating [7, 21]: 0
Plant response rating, Wild oats [7, 22]: 0
Plant response rating, Wild oats [7, 23]: 0
Plant response rating, B. signalgrass [8, 16]: 0
Plant response rating, B. signalgrass [8, 17]: 0
B. signalgrass plant response rating [8, 18]: 0
Plant response rating, B. signalgrass [8, 19]: 0
B. signalgrass plant response rating [8, 20]: 0
B. signalgrass plant response rating [8, 21]: 0
Plant response rating, B. signalgrass [8, 22]: 0
B. signalgrass plant response rating [8, 23]: 0
Plant response rating, Blackgrass [9, 16]: 0
Plant response rating, Blackgrass [9, 17]: 0
Blackgrass plant response rating [9, 18]: 0
Plant response rating, Blackgrass [9, 19]: 0
Blackgrass plant response rating [9, 20]: 0
Blackgrass plant response rating [9, 21]: 0
Plant response rating, Blackgrass [9, 22]: 0
Blackgrass plant response rating [9, 23]: 0
Plant response rating, Redroot pigweed [10, 16]: 0
Plant response rating, Redroot pigweed [10, 17]: 0
Redroot pigweed plant response rating [10, 18]: 0
Redroot pigweed plant response rating [10, 20]: 0
Redroot pigweed plant response rating [10, 21]: 0
Plant response rating, Redroot pigweed [10, 22]: 0
Plant response rating, Redroot pigweed [10, 23]: 0
Plant response rating, Bedstraw [11, 16]: 0
Bedstraw plant response rating [11, 20]: 0
Bedstraw plant response rating [11, 21]: 0
Plant response rating, Bedstraw [11, 22]: 0
Bedstraw plant response rating [11, 23]: 0
Plant response rating, Giant foxtail [12, 16]: 0
Plant response rating, Giant foxtail [12, 17]: 0
Giant foxtail plant response rating [12, 18]: 0
Giant foxtail plant response rating [12, 20]: 0
Giant foxtail plant response rating [12, 21]: 0
Plant response rating, Giant foxtail [12, 22]: 2
Plant response rating, Giant foxtail [12, 23]: 9
Plant response rating, Nutsedge [13, 16]: 0
Plant response rating, Nutsedge [13, 17]: 0
Nutsedge plant response rating [13, 18]: 0
Plant response rating, Nutsedge [13, 19]: 0
Nutsedge plant response rating [13, 20]: 0
Nutsedge plant response rating [13, 21]: 0
Plant response rating, Nutsedge [13, 22]: 0
Plant response rating, Nutsedge [13, 23]: 0
Plant response rating, Wheat [14, 16]: 0
Plant response rating, Wheat [14, 17]: 0
Wheat plant response rating [14, 18]: 0
Wheat plant response rating [14, 20]: 0
Wheat plant response rating [14, 21]: 0
Plant response rating, Wheat [14, 22]: 0
Plant response rating, Wheat [14, 23]: 0
Plant response rating, Cocklebur [15, 16]: 0
Plant response rating, Cocklebur [15, 17]: 0
Cocklebur plant response rating [15, 18]: 0
Plant response rating, Cocklebur [15, 19]: 0
Cocklebur plant response rating [15, 20]: 0
Cocklebur plant response rating [15, 21]: 0
Plant response rating, Cocklebur [15, 22]: 0
Plant response rating, Cocklebur [15, 23]: 0

Source: patent publication US6737383B1, “Herbicidal oxadiazolidines” (priority 1999, dated 2004)
